Assays:
Test in all cases: stopped-flow CO2 hydrase assay
MscCAβ = target: T1, MscCAβ (Mammaliicoccus sciuri, UniProt A0AAJ4SIE8); type: biochemical; conditions: CO2 hydration, […] TRIS pH […] Na2SO4, […] min preincubation at room temperature
T1 construct: gene OWO77_14055; recombinant, obtained in-house
T1 sequence (A0AAJ4SIE8 1-189): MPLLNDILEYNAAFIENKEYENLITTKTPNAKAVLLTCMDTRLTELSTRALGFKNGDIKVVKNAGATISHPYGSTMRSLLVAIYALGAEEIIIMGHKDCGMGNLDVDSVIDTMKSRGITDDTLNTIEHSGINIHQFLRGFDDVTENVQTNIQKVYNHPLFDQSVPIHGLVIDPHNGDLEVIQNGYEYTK

hCA VII = target: T2, hCA VII (Homo sapiens, UniProt P43166); type: biochemical
T2 construct: gene CA7; recombinant, obtained in-house
T2 sequence (P43166 whole entry): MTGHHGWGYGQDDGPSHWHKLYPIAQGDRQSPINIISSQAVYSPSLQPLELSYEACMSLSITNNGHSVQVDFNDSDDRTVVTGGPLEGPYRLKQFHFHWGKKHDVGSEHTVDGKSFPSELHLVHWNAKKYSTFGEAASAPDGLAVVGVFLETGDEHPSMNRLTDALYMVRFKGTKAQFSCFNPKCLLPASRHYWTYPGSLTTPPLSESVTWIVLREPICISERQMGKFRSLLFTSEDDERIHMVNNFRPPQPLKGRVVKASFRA
From the text: stopped-flow CO2 hydrase assay on hCA VII

StCA2 = target: T3, StCA2 (Salmonella enterica, UniProt O30898); type: biochemical; conditions: CO2 hydration, […] TRIS pH […] Na2SO4, […] min preincubation at room temperature
T3 construct: gene mig-5; recombinant, obtained in-house
T3 sequence (O30898 41-246): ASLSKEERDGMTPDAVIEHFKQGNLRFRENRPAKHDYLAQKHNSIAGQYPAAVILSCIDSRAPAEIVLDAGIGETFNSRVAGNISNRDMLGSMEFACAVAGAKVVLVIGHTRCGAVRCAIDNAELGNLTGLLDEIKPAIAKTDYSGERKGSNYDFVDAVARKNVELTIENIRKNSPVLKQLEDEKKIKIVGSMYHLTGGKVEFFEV

hCA I = target: T4, hCA I (Homo sapiens, UniProt P00915); type: biochemical
T4 construct: gene CA1; recombinant, obtained in-house
T4 sequence (P00915 2-261): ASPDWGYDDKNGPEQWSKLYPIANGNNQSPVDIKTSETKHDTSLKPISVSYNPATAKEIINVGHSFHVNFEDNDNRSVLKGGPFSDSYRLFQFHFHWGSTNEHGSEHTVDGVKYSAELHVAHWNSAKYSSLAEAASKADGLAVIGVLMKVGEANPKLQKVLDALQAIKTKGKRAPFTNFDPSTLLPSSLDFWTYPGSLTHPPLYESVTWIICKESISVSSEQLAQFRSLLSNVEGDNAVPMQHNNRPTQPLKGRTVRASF
From the text: stopped-flow CO2 hydrase assay on hCA I

hCA II = target: T5, hCA II (Homo sapiens, UniProt P00918); type: biochemical
T5 construct: gene CA2; recombinant, obtained in-house
From the text: stopped-flow CO2 hydrase assay on hCA II

StCA1 = target: T6, StCA1; type: biochemical, Salmonella enterica subsp. enterica serovar Typhimurium; conditions: CO2 hydration, […] TRIS pH […] Na2SO4, […] min preincubation at room temperature
T6 construct: recombinant, obtained in-house

Structure (SMILES) | Ki (MscCAβ) [nM] | Ki (hCA VII) [nM] | Ki (StCA2) [nM] | Ki (hCA I) [nM] | Ki (hCA II) [nM] | Ki (StCA1) [nM]
CC(C)C1SC(Nc2ccc(S(N)(=O)=O)cc2)=NC1=O (racemic) [4e, 4-((5-Isopropyl-4-oxo-4,5-dihydrothiazol-2-yl)amino)benzenesulphonamide] | 701 | 7.5 | 867 | 85.4 | 7.3 | 81.1
CC1SC(Nc2ccc(S(N)(=O)=O)cc2)=NC1=O (racemic) [4b, 4-((5-Methyl-4-oxo-4,5-dihydrothiazol-2-yl)amino)benzenesulphonamide] | 481 | 0.9 | 538 | 31.5 | 4.3 | 89.9
NS(=O)(=O)c1ccc(NC2=NC(=O)C(F)S2)cc1 (racemic) [4j, 4-((5-Fluoro-4-oxo-4,5-dihydrothiazol-2-yl)amino)benzenesulphonamide] | 849 | 1.9 | 956 | 138 | 3.7 | 90.9
CCC1SC(Nc2ccc(S(N)(=O)=O)cc2)=NC1=O (racemic) [4c, 4-((5-Ethyl-4-oxo-4,5-dihydrothiazol-2-yl)amino)benzenesulphonamide] | 411 | 1.2 | 481 | 66.6 | 3.8 | 86.1
CCCCC1SC(Nc2ccc(S(N)(=O)=O)cc2)=NC1=O (racemic) [4f, 4-((5-Butyl-4-oxo-4,5-dihydrothiazol-2-yl)amino)benzenesulphonamide] | 2420 | 6.2 | 904 | 75 | 3.2 | 72.4
CCCCCCC1SC(Nc2ccc(S(N)(=O)=O)cc2)=NC1=O (racemic) [4g, 4-((5-Hexyl-4-oxo-4,5-dihydrothiazol-2-yl)amino)benzenesulphonamide] | 4030 | 14.6 | 4880 | 637 | 13.7 | 83.6
NS(=O)(=O)c1ccc(NC2=NC(=O)C(CCBr)S2)cc1 (racemic) [4i, 4-((5-(2-Bromoethyl)-4-oxo-4,5-dihydrothiazol-2-yl)amino)benzenesulphonamide] | 925 | 2.1 | 515 | 74.6 | 2.2 | 69.2
CCCC1SC(Nc2ccc(S(N)(=O)=O)cc2)=NC1=O (racemic) [4d, 4-((4-Oxo-5-propyl-4,5-dihydrothiazol-2-yl)amino)benzenesulphonamide] | 73.6 | 2 | 913 | 70.7 | 2.3 | 83.3
NS(=O)(=O)c1ccc(NC2=NC(=O)CS2)cc1 [4a, 4-((4-Oxo-4,5-dihydrothiazol-2-yl)amino)benzenesulphonamide] | 787 | 1.4 | 275 |  |  | 82.4
NS(=O)(=O)c1ccc(NC2=NC(=O)C(c3ccccc3)S2)cc1 (racemic) [4h, 4-((4-Oxo-5-phenyl-4,5-dihydrothiazol-2-yl)amino)benzenesulphonamide] | 1060 | 7.3 | 797 | 90.4 | 1.3 | 163
